One assay has as its system cortical neurons. Kind of assay: Neuroprotection of cultured cortical neurons exposed to FeSO4 or FeSO4/H2O2. The class given is cell-based. Conditions: Table 2, neuroprotection of primary neurons exposed to FeSO4, read-out: IC50. Here is the method: FIGS. 10A-10B show the neuroprotective effect of ATP-γ-S and GDP-β-S (0.2-200 μM, t=24 h) as evaluated by MTT production in cortical neurons exposed for 24 h to either FeSO4 at final concentration of 3 μM (10A); or both FeSO4 (3 μM) and H2O2 (100 μM) (10B). The results shown are the mean±SEM of three independent experiments in quadruplicate.
Cultured cortical neurons in 96-well plates were treated with different concentrations of FeSO4, or hydrogen peroxide and FeSO4, for 24 h at 37° C. Following exposure to various insults, the cells were treated with ATP-γ-S and GDP-β-S as described. Cells were subsequently incubated for a further 18-24 h as indicated before being assessed for viability measures. Neurons were treated with ATP-γ-S and GDP-β-S at three concentrations ([…]) simultaneously with 1.5, 3 or 6 μM FeSO4 for 24 h. Following 24 h incubation in the presence of both FeSO4 and ATP-γ-S and GDP-β-S cell viability measures were assessed by XTT assay. All experiments were performed in triplicate.
FeSO4 induced a concentration-dependent decrease in cell viability as assessed by XTT assay and morphological assessment following 24 h of exposure (FIG. 9). The neuroprotective effect of ATP-γ-S and GDP-β-S (due to iron chelation) was evaluated in cortical neurons exposed to FeSO4 for 24 h (FIG. 10).

The target of another assay is T1, human NPP1 (Homo sapiens, UniProt P22413).
T1 construct: made in house; host or cells: COS-7 cells (transfected; protein extract / cell lysate)
T1 sequence (P22413 1-925): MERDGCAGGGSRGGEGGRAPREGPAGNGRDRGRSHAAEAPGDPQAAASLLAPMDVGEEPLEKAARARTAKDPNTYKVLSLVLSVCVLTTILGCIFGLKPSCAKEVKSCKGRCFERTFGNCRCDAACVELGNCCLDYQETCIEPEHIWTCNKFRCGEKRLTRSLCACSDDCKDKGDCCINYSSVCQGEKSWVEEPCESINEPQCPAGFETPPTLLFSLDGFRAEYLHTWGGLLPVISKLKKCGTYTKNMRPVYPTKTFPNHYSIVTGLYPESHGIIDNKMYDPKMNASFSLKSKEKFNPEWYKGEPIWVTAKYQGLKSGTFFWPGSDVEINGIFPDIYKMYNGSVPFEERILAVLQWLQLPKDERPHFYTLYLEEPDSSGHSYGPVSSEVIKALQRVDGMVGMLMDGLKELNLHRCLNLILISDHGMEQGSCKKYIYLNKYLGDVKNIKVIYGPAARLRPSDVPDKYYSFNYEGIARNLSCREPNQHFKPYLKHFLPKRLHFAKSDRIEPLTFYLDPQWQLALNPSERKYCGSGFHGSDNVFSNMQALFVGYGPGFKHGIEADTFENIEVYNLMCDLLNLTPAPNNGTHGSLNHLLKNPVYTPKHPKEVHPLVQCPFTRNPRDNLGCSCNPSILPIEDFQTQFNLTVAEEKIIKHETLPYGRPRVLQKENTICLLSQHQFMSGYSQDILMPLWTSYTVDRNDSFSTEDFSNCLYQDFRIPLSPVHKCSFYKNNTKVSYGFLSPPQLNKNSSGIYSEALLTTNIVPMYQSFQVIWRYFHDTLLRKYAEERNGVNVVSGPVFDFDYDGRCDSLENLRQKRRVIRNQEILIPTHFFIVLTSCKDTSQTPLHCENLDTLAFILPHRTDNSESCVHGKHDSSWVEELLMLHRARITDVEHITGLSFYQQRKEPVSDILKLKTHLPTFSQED
The assay is described as follows: Inhibition of NPP1 activity. The assay is classed as biochemical. As to conditions: Dixon and Cornish-Bowden methods.

In a further assay the target is T2, human P2Y1-R (Homo sapiens, UniProt P47900).
T2 construct: expressed in transfected cells; host or cells: 1321N1 astrocytoma cells
T2 sequence (P47900 whole entry): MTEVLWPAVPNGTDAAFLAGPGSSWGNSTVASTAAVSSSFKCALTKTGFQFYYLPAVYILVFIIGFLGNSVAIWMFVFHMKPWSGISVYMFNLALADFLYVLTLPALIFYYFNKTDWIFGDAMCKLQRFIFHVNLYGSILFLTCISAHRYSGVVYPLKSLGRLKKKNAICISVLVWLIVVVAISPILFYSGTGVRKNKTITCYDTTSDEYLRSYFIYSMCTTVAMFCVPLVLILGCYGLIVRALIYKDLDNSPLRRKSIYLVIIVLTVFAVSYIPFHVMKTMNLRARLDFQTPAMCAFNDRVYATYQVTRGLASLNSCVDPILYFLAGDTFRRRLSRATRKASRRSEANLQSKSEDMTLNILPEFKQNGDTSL
The assay is described as follows: [Ca^2+]i response of 1321N1 astrocytoma cells expressing P2Y1-R GFP. The assay is classed as cell-based. Conditions: agonist; read-out: EC50 at the P2Y1 receptor. Here is the method:
GFP constructs of human P2Y2-R, P2Y1-R and P2Y11-R were stably expressed in 1321N1 astrocytoma cells, which lack endogenous expression of P2X- and P2Y-receptors. The respective cDNA of the receptor gene was cloned into a pEGFPN1 vector and after transfection, using FuGENE 6 Transfection Reagent (Roche Molecular Biochemicals, Mannheim, Germany), cells were selected with 0.5 mg/ml G418 (geneticine; Merck Chemicals, Darmstadt, Germany) and grown in DMEM supplemented with 10% serum (FCS), 100 U/ml penicillin and 100 U/ml streptomycin at 37° C. and 5% CO2. The expression and cell membrane localization of the respective P2Y receptors was confirmed through the analysis of the GFP fluorescence. The functionality of the expressed GFP-labeled receptor in cells was verified by recording a change of [Ca^2+]i after stimulation with the appropriate receptor agonist.
1321N1 astrocytoma cells transfected with the respective plasmid for P2Y-R-GFP expression plated on coverslips (22 mm diameter) and grown to approximately 80% density, were incubated with 2 μM fura 2/AM and 0.02% pluronic acid in Na-HBS buffer (Hepes buffered saline: 145 mM NaCl, 5.4 mM KCl, 1.8 mM CaCl2, 1 mM MgCl2, 25 mM glucose, 20 mM Hepes/Tris pH 7.4) for 30 min at 37° C. The cells were superfused (1 ml/min, 37° C.) with different concentrations of nucleotide in Na-HBS buffer. The nucleotide-induced change of [Ca^2+] was monitored by detecting the fluorescence intensities with excitations at 340 nm and 380 nm. Only GFP-labeled cells were analyzed. Microsoft Excel (Microsoft Corp., Redmond, Wash., USA) and SigmaPlot (SPSS Inc., Chicago, Ill., USA) were used to derive the concentration-response curves and EC50 values from the average response amplitudes obtained in at least three independent experiments (Ecke et al., 2006; Ecke et al., 2008). Only cells with a clear GFP-signal and with the typical calcium response kinetics upon agonist pulse application were included in the data analysis. The nucleotide induced change of [Ca^2+]i was monitored by detecting the respective emission intensity of fura 2/AM at 510 nm with 340 nm and 380 nm excitations (Ubl et al., 1998). The average maximal amplitude of the responses and the respective standard errors were calculated from ratio of the fura 2/AM. The GFP-tagged P2Y receptors are suitable for pharmacological and physiological studies, as previously reported (Tulapurkar et al., 2004; Tulapurkar et al., 2006; Zylberg et al., 2007).

The target in the next assay is T3, human NPP3 (Homo sapiens, UniProt O14638).
T3 construct: made in house; host or cells: COS-7 cells (transfected; protein extract / cell lysate)
T3 sequence (O14638 1-875): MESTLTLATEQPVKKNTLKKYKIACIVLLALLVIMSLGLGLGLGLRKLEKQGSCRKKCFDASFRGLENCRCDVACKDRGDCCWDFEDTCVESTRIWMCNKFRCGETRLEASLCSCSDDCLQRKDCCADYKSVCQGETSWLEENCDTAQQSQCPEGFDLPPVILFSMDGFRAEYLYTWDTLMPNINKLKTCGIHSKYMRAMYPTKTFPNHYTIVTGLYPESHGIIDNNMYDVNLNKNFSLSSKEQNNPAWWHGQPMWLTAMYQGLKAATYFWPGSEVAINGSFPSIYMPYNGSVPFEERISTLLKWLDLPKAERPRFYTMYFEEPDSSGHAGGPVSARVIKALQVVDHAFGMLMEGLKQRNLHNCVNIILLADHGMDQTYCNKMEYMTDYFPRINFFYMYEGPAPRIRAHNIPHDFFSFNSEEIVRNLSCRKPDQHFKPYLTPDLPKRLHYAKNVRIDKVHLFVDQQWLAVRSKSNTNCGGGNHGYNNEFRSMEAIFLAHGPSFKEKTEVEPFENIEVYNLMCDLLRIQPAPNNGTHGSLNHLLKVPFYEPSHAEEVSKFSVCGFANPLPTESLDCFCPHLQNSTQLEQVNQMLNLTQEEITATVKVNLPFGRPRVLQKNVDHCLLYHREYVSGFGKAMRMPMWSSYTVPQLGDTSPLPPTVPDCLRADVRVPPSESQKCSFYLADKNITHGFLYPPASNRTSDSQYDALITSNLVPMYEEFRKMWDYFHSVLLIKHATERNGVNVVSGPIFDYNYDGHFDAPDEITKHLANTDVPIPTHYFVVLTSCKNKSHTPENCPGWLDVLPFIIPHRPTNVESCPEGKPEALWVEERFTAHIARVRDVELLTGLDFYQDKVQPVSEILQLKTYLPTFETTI
The assay is described as follows: Inhibition of NPP3 activity. The class given is biochemical. Conditions: read-out: inhibition of NPP3 activity. The procedure: Pnp-TMP hydrolyses were carried out at 37° C. in 0.2 ml of the following incubation mixture: in mM, 1 CaCl2, 130 NaCl, 5 KCl and 50 Tris, pH 8.5, with or without the analogue tested and/or substrates. Substrates and analogues were all used at the final concentration of 100 μM. […] For pnp-TMP hydrolysis, the production of para-nitro-phenol was measured at […], 15 min after the initiation of the reaction.
The samples were centrifuged for 5 min at 13,000×g. Supernatants were neutralized with 1 M KOH (Fisher Scientific, Ottawa, ON, Canada) at 4° C. and centrifuged for 5 min at 13,000×g.

Assay [1] is described as follows: ESR OH radical assay, Fe^2+/H2O2 Fenton system. As to conditions: N/A = minimal radical production exceeds 10%.
A further assay has as its target T4, Aβ28-Cu^+ complex (Homo sapiens, UniProt P05067).
T4 construct: we first studied Aβ28, as a more soluble fragment of Aβ40; purchased Sigma-Aldrich
The assay is described as follows: Titration of Aβ28-Cu^+ complex by chelators monitored by 1H-NMR. As to conditions: 0.8 mM Aβ28-Cu^+, pD 7; for effect on Aβ28-Cu^+ 1H-NMR spectrum: 6 eq chelator.

For a further assay, the system named is PC12 cells. Kind of assay: Inhibition of Fe(II)-induced ROS formation in PC12 cells (DCFH-DA). The class given is cell-based. Conditions: PC12 cells, FeSO4 0.16 μM, 1 h, DCFH-DA; read-out: IC50 inhibition of ROS formation. The procedure: In this study, nucleoside 5′-phosphorothioate analogues were explored as inhibitors of Fe(II)-induced oxidative stress in PC12 cells used as a neuronal model. Reduction of ROS production in PC12 cells by each one of the tested analogues was measured by DCFH-DA, a radical sensitive indicator. After DCFH-DA was removed, the tested analogue was added to the cells at a final concentration of 0.2-200 μM. Oxidation was initiated by the addition of FeSO4 (0.16 μM) to the wells. The plates were incubated for 1 h at 37° C., during which the absorbance was read by a Tecan fluorometer at 485/530 nm.

Like-named read-outs stand apart in the source and are kept apart here.

T4 sequence (P05067 672-699 limits assumed, one chain of several): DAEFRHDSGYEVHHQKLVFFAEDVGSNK

In the case of `Nc1ncnc2c1ncn2[C@@H]1O[C@H](COP(=O)(O)OP(=O)(O)O)[C@@H](O)[C@H]1O` [ADP, adenosine diphosphate], the concentration for half-maximal inhibition (IC50) in the assay with cortical neurons (Cortical neurone) was 19 ± 1.9 µM.
Regarding `Nc1ncnc2c1ncn2C1OC(COP(O)(=S)OP(=O)(O)CP(=O)(O)O)C(O)C1O` (stereo not drawn) [APPCP-α-S, adenosine 5′-[Pα-thio]-β,γ-methylenetriphosphate], the type of inhibition entry at human NPP1 is recorded as “mixed type inhibition, predominantly competitive”. For the same compound, at human P2Y1-R, the EC50 was greater than 10 µM. On human NPP3, the inhibition at 100 µM was 23 to 43%.
As to `O=C(O)CC(O)(CC(=O)O)C(=O)O` [Citrate], the IC50 with cortical neurons (Cortical neurone) stood at 25 ± 3.3 µM.
On to `Nc1nc2c(ncn2[C@@H]2O[C@H](COP(=O)(O)OP(=O)(O)O)[C@@H](O)[C@H]2O)c(=O)[nH]1` [GDP, gunosine diphosphate], for which the IC50 in the assay with cortical neurons was 21 ± 3.1 µM.
`N[C@@H](CCC(=O)N[C@@H](CS)C(=O)NCC(=O)O)C(=O)O` [GSH, glutathione] gave an IC90 in assay [1] of 491 ± 5 µM.
For the compound `Nc1nc2c(ncn2[C@@H]2O[C@H](COP(=O)(O)OP(=O)(O)OP(=O)(O)O)[C@@H](O)[C@H]2O)c(=O)[nH]1` [GTP, guanosine triphosphate], in the assay with cortical neurons (Cortical neurone), the IC50 came to 32 ± 2.3 µM.
On to `Nc1nc2c(ncn2[C@@H]2O[C@H](COP(=O)(O)OP(=O)(O)OP(O)(O)=S)[C@@H](O)[C@H]2O)c(=O)[nH]1` [GTP-γ-S, guanosine 5′-[γ-thio]triphosphate], for which the IC50 stood at 0.04 ± 0.01 µM in the assay on cortical neurons and 5 µM with PC12 cells. Further, the “equivalents at which the spectrum resembled that of pure Aβ28” value on Aβ28-Cu^+ complex turned out to be 3.2 eq.
For `[Na+].[Na+].[Na+].[O-]P([O-])([O-])=S` [Thiophosphate, trisodiumthiophosphate], on Aβ28-Cu^+ complex, the “effect on Aβ28-Cu^+ 1H-NMR spectrum” value is recorded as “significant sharpening of the Aβ28 spectrum”.
Regarding `Cc1c(C)c2c(c(C)c1O)CCC(C)(C(=O)O)O2` (centres unmarked) [Trolox], the IC50 in the assay on cortical neurons (Cortical neurone) stood at 23 ± 3.1 µM.
As to `O=P([O-])([O-])OP(=O)([O-])OP(=O)([O-])[O-].[Na+].[Na+].[Na+].[Na+].[Na+]` [triphosphate, sodium triphosphate], the “effect on Aβ28-Cu^+ 1H-NMR spectrum” value on Aβ28-Cu^+ complex was “showed only Phe peaks reappearances without any His signals”.

Values taken from patent US20140378408A1, “NUCLEOSIDE 5'-PHOSPHOROTHIOATE ANALOGUES AND USES THEREOF” (BAR-ILAN UNIVERSITY, an Israeli University, priority 2012, published 2014).
